{"source": "patent US7989459B2", "about": "“Purinones and 1H-imidazopyridinones as PKC-theta inhibitors” (Pharmacopeia, LLC, priority 2006, dated 2011)", "key": {"PKC delta": {"target": "PKC delta (Homo sapiens, UniProt Q05655)", "sequence (Q05655 whole entry)": "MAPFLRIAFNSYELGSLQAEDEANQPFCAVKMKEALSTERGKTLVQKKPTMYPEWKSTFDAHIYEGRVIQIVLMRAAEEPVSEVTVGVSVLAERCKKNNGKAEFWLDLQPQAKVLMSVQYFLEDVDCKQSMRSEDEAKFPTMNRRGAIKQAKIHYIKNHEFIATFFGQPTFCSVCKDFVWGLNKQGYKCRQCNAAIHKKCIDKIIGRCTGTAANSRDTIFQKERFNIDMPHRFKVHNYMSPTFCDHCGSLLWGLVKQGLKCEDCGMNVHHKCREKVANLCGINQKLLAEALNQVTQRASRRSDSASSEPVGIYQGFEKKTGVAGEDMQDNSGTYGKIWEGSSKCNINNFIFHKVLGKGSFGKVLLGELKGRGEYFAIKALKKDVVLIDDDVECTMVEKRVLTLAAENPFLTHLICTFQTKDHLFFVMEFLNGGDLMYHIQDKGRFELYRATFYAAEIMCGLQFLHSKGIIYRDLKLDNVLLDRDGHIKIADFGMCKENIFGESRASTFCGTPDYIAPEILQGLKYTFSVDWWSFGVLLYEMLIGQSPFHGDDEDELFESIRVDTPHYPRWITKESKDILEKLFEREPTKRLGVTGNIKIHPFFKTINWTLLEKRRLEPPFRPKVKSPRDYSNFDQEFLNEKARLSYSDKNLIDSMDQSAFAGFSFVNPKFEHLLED", "assay": "Ki Pan Vera (PV) PKC delta", "format": "biochemical"}, "PKC alpha": {"target": "PKC alpha (Homo sapiens, UniProt P17252)", "assay": "Ki Pan Vera (PV) PKC alpha", "format": "biochemical", "description": "[Worded in the source for another target; this target is reported under the same test.] (§1) For Ki Pan Vera (PV) of PKCθ, entries identified with “A” had values below 100 nM; entries identified with “B” had values below 1 μM."}, "[1]": {"tested_on": "anti-CD3 induced interleukin-2 (IL-2) production", "assay": "anti-CD3 induced IL-2 production in mice", "format": "in vivo", "description": "The compounds of the invention were also tested in vivo."}, "PKCθ": {"target": "PKCθ (Homo sapiens, UniProt Q04759)", "sequence (Q04759 whole entry)": "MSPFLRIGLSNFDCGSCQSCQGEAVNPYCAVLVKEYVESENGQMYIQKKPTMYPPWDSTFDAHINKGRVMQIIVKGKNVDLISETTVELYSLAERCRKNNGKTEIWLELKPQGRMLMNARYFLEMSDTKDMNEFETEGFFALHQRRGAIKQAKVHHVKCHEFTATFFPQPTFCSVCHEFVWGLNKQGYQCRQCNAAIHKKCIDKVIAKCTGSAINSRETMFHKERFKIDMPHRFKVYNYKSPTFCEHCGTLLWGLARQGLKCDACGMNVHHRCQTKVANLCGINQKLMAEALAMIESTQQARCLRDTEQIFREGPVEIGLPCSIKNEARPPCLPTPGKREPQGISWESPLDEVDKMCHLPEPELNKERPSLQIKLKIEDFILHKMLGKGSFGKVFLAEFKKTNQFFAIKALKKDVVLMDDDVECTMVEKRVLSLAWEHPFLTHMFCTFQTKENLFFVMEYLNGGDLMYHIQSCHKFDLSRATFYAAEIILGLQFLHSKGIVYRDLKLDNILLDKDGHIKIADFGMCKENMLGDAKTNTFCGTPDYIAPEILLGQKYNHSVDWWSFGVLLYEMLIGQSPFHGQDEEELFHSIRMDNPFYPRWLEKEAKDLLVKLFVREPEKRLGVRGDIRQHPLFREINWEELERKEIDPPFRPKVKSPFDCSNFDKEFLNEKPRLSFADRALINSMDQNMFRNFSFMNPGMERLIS", "assay": "Ki Pan Vera (PV) PKCθ", "format": "biochemical", "description": "as §1"}, "SGK1": {"target": "T1, SGK1 (Homo sapiens, UniProt O00141)", "T1 sequence (O00141 1-431)": "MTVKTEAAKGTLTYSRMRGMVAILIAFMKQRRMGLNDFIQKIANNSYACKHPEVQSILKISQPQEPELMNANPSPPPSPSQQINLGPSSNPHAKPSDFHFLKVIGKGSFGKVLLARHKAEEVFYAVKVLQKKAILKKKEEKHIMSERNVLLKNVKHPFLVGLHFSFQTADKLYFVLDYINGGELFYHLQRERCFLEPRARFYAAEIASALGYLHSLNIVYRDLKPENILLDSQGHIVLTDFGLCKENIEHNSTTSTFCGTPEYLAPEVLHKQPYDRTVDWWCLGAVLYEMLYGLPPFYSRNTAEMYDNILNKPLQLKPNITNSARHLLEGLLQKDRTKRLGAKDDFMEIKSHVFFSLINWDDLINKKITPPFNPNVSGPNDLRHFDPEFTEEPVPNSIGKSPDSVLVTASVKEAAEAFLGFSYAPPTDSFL", "assay": "IC50 for kinase SGK (selectivity)", "format": "biochemical", "description": "Entries identified with “1” had values above 15 nM; entries identified with “2” had values above 100 nM; entries identified with “3” had values above 1 μM; entries identified with “4” had values above 10 μM. In Table 2, “nd” stands for “not determined.”"}}}
{"smiles": "O=c1[nH]c2cnc(NC[C@@H]3CCNC3)nc2n1Cc1c(Cl)cccc1Cl", "note": "[Compound 101]", "values": [{"measurement": "Ki", "setting": "PKC delta", "result": "> 15", "unit": "nM"}, {"measurement": "Ki", "setting": "PKC alpha", "result": "> 1000", "unit": "nM"}, {"measurement": "% inhibition of IL-2 production", "setting": "[1]; subcutaneous dose 30 mg/kg", "result": 39, "unit": "%"}, {"measurement": "Ki", "setting": "PKCθ", "result": "< 100", "unit": "nM"}]}
{"smiles": "O=c1[nH]c2cnc(NC[C@@H]3CCNC3)nc2n1Cc1cccc(Cl)c1Cl", "note": "[Compound 107]", "values": [{"measurement": "Ki", "setting": "PKC delta", "result": "> 15", "unit": "nM"}, {"measurement": "Ki", "setting": "PKC alpha", "result": "> 1000", "unit": "nM"}, {"measurement": "% inhibition of IL-2 production", "setting": "[1]; subcutaneous dose 30 mg/kg", "result": 45, "unit": "%"}, {"measurement": "Ki", "setting": "PKCθ", "result": "< 100", "unit": "nM"}]}
{"smiles": "NCCCNc1ncc2[nH]c(=O)n(Cc3cc(Cl)ccc3Cl)c2n1", "note": "[Compound 115]", "values": [{"measurement": "Ki", "setting": "PKC delta", "result": "> 100", "unit": "nM"}, {"measurement": "Ki", "setting": "PKC alpha", "result": "> 1000", "unit": "nM"}, {"measurement": "% inhibition of IL-2 production", "setting": "[1]; subcutaneous dose 30 mg/kg", "result": 40, "unit": "%"}, {"measurement": "Ki", "setting": "PKCθ", "result": "< 100", "unit": "nM"}]}
{"smiles": "NCCCNc1ncc2[nH]c(=O)n(Cc3c(Cl)cccc3Cl)c2n1", "note": "[Compound 120, 9-(2,6-dichlorobenzyl)-2-(3-aminopropylamino)-7H-purin-8(9H)-one]", "values": [{"measurement": "Ki", "setting": "PKC delta", "result": "> 100", "unit": "nM"}, {"measurement": "IC50-SGK1 (nM)", "setting": "SGK1", "result": "Inactive"}, {"measurement": "Ki", "setting": "PKC alpha", "result": "> 10000", "unit": "nM"}, {"measurement": "% inhibition of IL-2 production", "setting": "[1]; subcutaneous dose 30 mg/kg", "result": 40, "unit": "%"}, {"measurement": "Ki", "setting": "PKCθ", "result": "< 100", "unit": "nM"}]}
{"smiles": "O=c1[nH]c2cnc(NCC3CCNC3)nc2n1Cc1ccccc1F", "note": "(centres unmarked) [Compound 204]", "values": [{"measurement": "Ki", "setting": "PKC delta", "result": "> 100", "unit": "nM"}, {"measurement": "IC50", "setting": "SGK1", "result": "> 10000", "unit": "nM"}, {"measurement": "Ki", "setting": "PKC alpha", "result": "> 10000", "unit": "nM"}, {"measurement": "Ki", "setting": "PKCθ", "result": "< 1000", "unit": "nM"}]}
{"smiles": "O=c1[nH]c2cnc(NCC3CCNCC3)nc2n1Cc1c(Cl)cccc1Cl", "note": "[Compound 205]", "values": [{"measurement": "Ki", "setting": "PKC delta", "result": "> 100", "unit": "nM"}, {"measurement": "IC50-SGK1 (nM)", "setting": "SGK1", "result": "Inactive"}, {"measurement": "Ki", "setting": "PKC alpha", "result": "> 10000", "unit": "nM"}, {"measurement": "Ki", "setting": "PKCθ", "result": "< 1000", "unit": "nM"}]}
{"smiles": "O=c1[nH]c2cnc(NCC3CCNCC3)nc2n1Cc1ccccc1Cl", "note": "[Compound 206]", "values": [{"measurement": "Ki", "setting": "PKC delta", "result": "> 100", "unit": "nM"}, {"measurement": "IC50-SGK1 (nM)", "setting": "SGK1", "result": "Inactive"}, {"measurement": "Ki", "setting": "PKC alpha", "result": "> 10000", "unit": "nM"}, {"measurement": "Ki", "setting": "PKCθ", "result": "< 1000", "unit": "nM"}]}
{"smiles": "NCCCNc1ncc2[nH]c(=O)n(Cc3ccccc3F)c2n1", "note": "[Compound 208]", "values": [{"measurement": "Ki", "setting": "PKC delta", "result": "> 100", "unit": "nM"}, {"measurement": "IC50-SGK1 (nM)", "setting": "SGK1", "result": "Inactive"}, {"measurement": "Ki", "setting": "PKC alpha", "result": "> 10000", "unit": "nM"}, {"measurement": "Ki", "setting": "PKCθ", "result": "< 1000", "unit": "nM"}]}
{"smiles": "NCCCNc1ccc2[nH]c(=O)n(Cc3ccccc3Cl)c2n1", "note": "[Compound 241]", "values": [{"measurement": "Ki", "setting": "PKC delta", "result": "> 100", "unit": "nM"}, {"measurement": "IC50-SGK1 (nM)", "setting": "SGK1", "result": "Inactive"}, {"measurement": "Ki", "setting": "PKC alpha", "result": "> 10000", "unit": "nM"}, {"measurement": "Ki", "setting": "PKCθ", "result": "< 1000", "unit": "nM"}]}
{"smiles": "C=CC[C@@H]1/C=C(\\C)C[C@H](C)C[C@H](OC)[C@H]2O[C@@](O)(C(=O)C(=O)N3CCCC[C@H]3C(=O)O[C@H](/C(C)=C/[C@@H]3CC[C@@H](O)[C@H](OC)C3)[C@H](C)[C@@H](O)CC1=O)[C@H](C)C[C@@H]2OC", "note": "[FK506, reference compound]", "values": [{"measurement": "% inhibition of IL-2 production", "setting": "[1]; subcutaneous dose 1 mg/kg", "result": 87, "unit": "%"}]}
